Results on two compounds are retold here after patent US12503469B2, “Forms of methyl {4,6-diamino-2-[1-(2-fluorobenzyl)-1H-pyrazolo[3-4-b]pyridino-3-yl]pyrimidino-5-yl} methyl carbamate” (Adverio Pharma GmbH, priority 2013, dated 2025).

A short description of this data set: Solid-state stability of the forms of the compound of formula (I). The class given is physicochemical.

As to `COC(=O)N(C)c1c(N)nc(-c2nn(Cc3ccccc3F)c3ncccc23)nc1N` [Modification I, methyl {4,6-diamino-2-[1-(2-fluorobenzyl)-1H-pyrazolo[3,4-b]pyridino-3-yl]pyrimidino-5-yl}methylcarbamate], where the note is “between 0° C. and 80° C.”, the “thermodynamic stability of the form” value is “thermodynamically stable form between 0 °C and 80 °C”.
`COC(=O)N(C)c1c(N)nc(-c2nn(Cc3ccccc3F)c3ncccc23)nc1N` [amorphous form, methyl {4,6-diamino-2-[1-(2-fluorobenzyl)-1H-pyrazolo[3,4-b]pyridin-3-yl]pyrimidin-5-yl}methylcarbamate]: under “room temperature”, the “stability of the amorphous form against crystallization” value is “can exist at room temperature, but crystallizes very quickly”.
